Test results from ChEMBL document CHEMBL1132621, “Synthesis, structure-activity relationships, and in vivo evaluations of substituted di-tert-butylphenols as a novel class of potent, selective, and orally active cyclooxygenase-2 inhibitors. 1. Thiazolone and oxazolone series” (J Med Chem, 1999).

How the values were obtained:
[1] = molecular target: T1, Prostaglandin G/H synthase 2 (Homo sapiens, UniProt P35354); test: IC50 against recombinant human Prostaglandin G/H synthase 2
T1 sequence (P35354 whole entry): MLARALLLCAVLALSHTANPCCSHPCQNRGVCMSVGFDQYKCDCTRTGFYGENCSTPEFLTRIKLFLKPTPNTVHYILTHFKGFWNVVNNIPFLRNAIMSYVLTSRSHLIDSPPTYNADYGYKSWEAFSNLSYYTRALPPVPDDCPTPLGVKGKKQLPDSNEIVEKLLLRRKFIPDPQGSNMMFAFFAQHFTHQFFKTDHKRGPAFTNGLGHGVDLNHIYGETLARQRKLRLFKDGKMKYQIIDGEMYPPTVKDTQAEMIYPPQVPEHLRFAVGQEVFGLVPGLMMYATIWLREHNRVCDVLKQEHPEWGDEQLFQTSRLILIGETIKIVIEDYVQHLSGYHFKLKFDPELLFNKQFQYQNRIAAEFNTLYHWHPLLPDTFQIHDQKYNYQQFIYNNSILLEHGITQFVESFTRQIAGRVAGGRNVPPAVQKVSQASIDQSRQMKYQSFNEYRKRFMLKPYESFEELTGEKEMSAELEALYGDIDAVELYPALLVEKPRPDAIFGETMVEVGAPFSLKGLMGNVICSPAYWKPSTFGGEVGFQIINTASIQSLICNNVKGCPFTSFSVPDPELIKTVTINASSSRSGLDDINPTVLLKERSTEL

[2] = molecular target: T2, Prostaglandin G/H synthase 1 (Homo sapiens, UniProt P23219); test: (§1) IC50 against Prostaglandin G/H synthase 1 from human platelet rich plasma
[3] = molecular target: T3, Prostaglandin G/H synthase 2 (Mus musculus, UniProt Q05769)
T3 sequence (Q05769 whole entry): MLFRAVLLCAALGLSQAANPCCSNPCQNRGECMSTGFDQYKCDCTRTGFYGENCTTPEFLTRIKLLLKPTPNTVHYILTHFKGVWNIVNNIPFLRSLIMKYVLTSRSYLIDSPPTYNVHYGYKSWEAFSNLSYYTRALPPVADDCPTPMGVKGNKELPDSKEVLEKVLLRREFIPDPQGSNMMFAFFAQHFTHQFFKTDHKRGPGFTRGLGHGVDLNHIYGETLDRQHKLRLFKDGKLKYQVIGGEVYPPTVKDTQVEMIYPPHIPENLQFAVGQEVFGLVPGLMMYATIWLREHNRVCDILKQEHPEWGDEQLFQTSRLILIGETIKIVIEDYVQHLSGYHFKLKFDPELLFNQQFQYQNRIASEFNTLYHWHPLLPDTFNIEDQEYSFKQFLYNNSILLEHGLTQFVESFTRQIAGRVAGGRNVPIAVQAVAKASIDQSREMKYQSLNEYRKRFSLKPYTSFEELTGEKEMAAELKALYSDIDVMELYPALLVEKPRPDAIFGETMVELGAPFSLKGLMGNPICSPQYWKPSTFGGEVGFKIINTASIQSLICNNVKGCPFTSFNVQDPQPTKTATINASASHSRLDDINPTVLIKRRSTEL
Description: IC50 value was determined against Prostaglandin G/H synthase 2 of J7744A.1 cell lines.

[4] = molecular target: T4, Prostaglandin G/H synthase 1 (Ovis aries, UniProt P05979)
T4 sequence (P05979 whole entry): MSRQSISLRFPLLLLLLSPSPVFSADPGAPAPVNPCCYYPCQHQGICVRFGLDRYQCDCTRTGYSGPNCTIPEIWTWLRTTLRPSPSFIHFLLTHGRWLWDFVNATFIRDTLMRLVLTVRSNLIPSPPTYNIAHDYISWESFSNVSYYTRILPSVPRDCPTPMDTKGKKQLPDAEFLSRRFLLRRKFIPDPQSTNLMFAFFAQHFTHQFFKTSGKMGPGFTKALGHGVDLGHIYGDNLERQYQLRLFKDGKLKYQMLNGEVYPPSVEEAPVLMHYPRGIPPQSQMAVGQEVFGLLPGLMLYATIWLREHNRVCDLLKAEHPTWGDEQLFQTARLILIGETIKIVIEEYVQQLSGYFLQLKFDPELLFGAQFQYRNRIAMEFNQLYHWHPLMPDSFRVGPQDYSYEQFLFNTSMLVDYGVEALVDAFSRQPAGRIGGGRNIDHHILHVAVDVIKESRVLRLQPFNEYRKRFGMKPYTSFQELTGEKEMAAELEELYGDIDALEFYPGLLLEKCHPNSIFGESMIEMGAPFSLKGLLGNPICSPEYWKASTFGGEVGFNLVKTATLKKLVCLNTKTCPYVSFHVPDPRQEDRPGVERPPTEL
Description: IC50 against ovine Prostaglandin G/H synthase 1

[5] = species: Rattus norvegicus; test: ED50 measured by CFE assay; type: functional
[6] = species: Mus musculus; test: ED50 measured by hyperalgesia assay; type: functional
[7] = species: Rattus norvegicus; test: Percentage of gastric damage was measured in rats.; type: functional, Stomach
[8] = species: Rattus norvegicus; test: Lesion frequency measured in rats; type: functional
[9] = species: Rattus norvegicus; test: Percentage inhibition of the prostaglandin synthesis was measured in rats.; type: functional
[10] = molecular target: T1, Prostaglandin G/H synthase 2; test: IC50 value against recombinant human Prostaglandin G/H synthase 2; not active
[11] = molecular target: T2, Prostaglandin G/H synthase 1; test: as §1
[12] = molecular target: T5, Prostaglandin G/H synthase 1 (Ovis aries) (UniProt P05979); test: IC50 value against ovine Prostaglandin G/H synthase 1; Not active; conditions: concentration not given here
T5 sequence (whole entry): T4 sequence (P05979 whole entry)

[13] = molecular target: T2, Prostaglandin G/H synthase 1; test: IC50 value was determined against Prostaglandin G/H synthase 1 of human platelet rich plasma; Not active
[14] = molecular target: T5, Prostaglandin G/H synthase 1 (Ovis aries); test: IC50 value against ovine Prostaglandin G/H synthase 1 at 10 uM
[15] = molecular target: T5, Prostaglandin G/H synthase 1 (Ovis aries); test: IC50 value against oCOX-1 at 10 uM
[16] = molecular target: T6, Prostaglandin G/H synthase 2 (Homo sapiens) (UniProt P35354); test: IC50 value against recombinant human Prostaglandin G/H synthase 2 at 10 uM
T6 sequence (whole entry): T1 sequence (P35354 whole entry)

[17] = molecular target: T5, Prostaglandin G/H synthase 1 (Ovis aries); test: IC50 value against oCOX-1 at 10 uM; Not active

T2 sequence (P23219 whole entry): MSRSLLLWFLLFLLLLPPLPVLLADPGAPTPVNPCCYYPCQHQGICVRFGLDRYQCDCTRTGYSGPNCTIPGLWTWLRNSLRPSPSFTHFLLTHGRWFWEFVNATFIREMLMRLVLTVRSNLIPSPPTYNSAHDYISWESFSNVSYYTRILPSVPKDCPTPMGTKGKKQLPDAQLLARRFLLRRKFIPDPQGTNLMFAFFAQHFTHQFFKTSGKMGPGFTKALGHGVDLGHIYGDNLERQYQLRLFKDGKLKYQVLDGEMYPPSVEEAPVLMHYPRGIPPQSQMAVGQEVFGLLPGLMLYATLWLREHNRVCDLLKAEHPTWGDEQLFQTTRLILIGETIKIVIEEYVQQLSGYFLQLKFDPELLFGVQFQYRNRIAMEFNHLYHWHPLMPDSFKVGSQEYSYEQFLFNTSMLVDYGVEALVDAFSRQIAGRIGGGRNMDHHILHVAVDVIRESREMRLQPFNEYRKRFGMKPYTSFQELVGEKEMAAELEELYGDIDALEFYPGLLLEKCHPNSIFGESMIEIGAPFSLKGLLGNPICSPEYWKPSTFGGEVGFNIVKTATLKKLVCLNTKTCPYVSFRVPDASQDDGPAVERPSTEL

Row | SMILES | IC50 [1] | IC50 [2] | IC50 [3] | IC50 [4] | IC50 [11] | also measured
1 | CN1C(NC(=N)N)=NC(=O)/C1=C/c1cc(C(C)(C)C)c(O)c(C(C)(C)C)c1 | 81 µM | 1.5 µM | 0.75 µM | 0.027 µM |  | 
2 | CC(C)(C)c1cc(/C=C2\NC(=S)NC2=O)cc(C(C)(C)C)c1O | 0.26 µM | 0.99 µM | 0.083 µM | 1.3 µM |  | 
3 | CS(=O)(=O)Nc1ccc([N+](=O)[O-])cc1OC1CCCCC1 [NS-398] |  |  |  |  |  | ED40 [5]: 0.61 mg/kg; ED40 [6]: 7.4 mg/kg; Gastric damage [7]: 0%; Lesion frequency [8]: 0%; Inhibition [9]: 30.7%
4 | CC(C)(C)c1cc(/C=C2\OC(=O)NC2=O)cc(C(C)(C)C)c1O | 34 µM | 1.2 µM | 0.071 µM | 0.095 µM |  | 
5 | CSC1=NC(=O)/C(=C/c2cc(C(C)(C)C)c(O)c(C(C)(C)C)c2)O1 |  |  | 0.54 µM | 1.6 µM | 6.4 µM | IC50 [10]: Not Active
6 | C=CCONC1=NC(=O)/C(=C/c2cc(C(C)(C)C)c(O)c(C(C)(C)C)c2)O1 | 26 µM | > 20 µM | 1.9 µM | 4 µM |  | 
7 | C/C(=C1/SC(N=C(N)N)=NC1=O)c1cc(C(C)(C)C)c(O)c(C(C)(C)C)c1 | 12 µM | 0.59 µM | 0.18 µM | 0.46 µM |  | 
8 | CC(C)(C)c1cc(/C=C2\SC(N=C(N)N)=NC2=O)cc(C(C)(C)C)c1O | 21 µM |  | 0.43 µM | 0.0061 µM | 0.25 µM | 
9 | CCONC1=NC(=O)/C(=C/c2cc(C(C)(C)C)c(O)c(C(C)(C)C)c2)O1 | 79 µM | > 20 µM | 0.65 µM | 3.5 µM |  | 
10 | C=CCONC1=NC(=O)/C(=C/c2cc(C(C)(C)C)c(O)c(C(C)(C)C)c2)S1 | 2.7 µM |  | 1.6 µM |  |  | inhibition [12]: < 20%; IC50 [13]: > 20 µM
11 | CC(C)(C)c1cc(/C=C2\SC(=S)NC2=O)cc(C(C)(C)C)c1O | 1.5 µM | > 20 µM | 0.39 µM | 24 µM |  | 
12 | COc1ccc2c(c1)c(CC(=O)O)c(C)n2C(=O)c1ccc(Cl)cc1 [INDOMETHACIN] |  |  |  |  |  | ED40 [5]: 1.6 mg/kg; ED40 [6]: 0.6 mg/kg; Gastric damage [7]: 0.18%; Lesion frequency [8]: 75%; Inhibition [9]: 96.5%
13 | CON(C)C1=NC(=O)/C(=C/c2cc(C(C)(C)C)c(O)c(C(C)(C)C)c2)S1 | 18 µM |  | 1.6 µM | 51 µM | 5.8 µM | ED40 [5]: 8.1 mg/kg; ED40 [6]: 0.06 mg/kg; Damaged area [7]: 0.04%; Lesion frequency [8]: 25%; Inhibition [9]: 52.2%
14 | CC(C)(C)c1cc(/C=C2\OC(N=C(N)N)=NC2=O)cc(C(C)(C)C)c1O | 5.1 µM | 4.4 µM | 0.44 µM | 1.2 µM |  | 
15 | CC(C)(C)c1cc(/C=C2\SC(=O)NC2=O)cc(C(C)(C)C)c1O | 4.7 µM | 9.3 µM | 0.06 µM | 42 µM |  | 
16 | CONC1=NC(=O)/C(=C/c2cc(C(C)(C)C)c(O)c(C(C)(C)C)c2)O1 |  | > 20 µM | 0.79 µM | 7.3 µM |  | 
17 | CS(=O)(=O)c1ccc(-n2nc(C(F)(F)F)cc2-c2ccc(F)cc2)cc1 [SC-58125] |  |  |  |  |  | inhibition [14]: < 20%; ED40 [5]: > 30 mg/kg; ED40 [6]: 0.3 mg/kg; Gastric damage [7]: 0%; Lesion frequency [8]: 0%; Inhibition [9]: -1.58%
18 | CCONC1=NC(=O)/C(=C/c2cc(C(C)(C)C)c(O)c(C(C)(C)C)c2)S1 | 3.2 µM |  | 0.27 µM |  |  | inhibition [12]: < 20%; IC50 [13]: > 20 µM
19 | CC(C)(C)c1cc(/C=C2\SC(NC#N)=NC2=O)cc(C(C)(C)C)c1O | 55 µM |  | 0.23 µM |  | > 20 µM | inhibition [15]: < 20%
20 | CONC1=NC(=O)/C(=C/c2cc(C(C)C)c(O)c(C(C)C)c2)S1 | 0.57 µM |  | > 20 µM | > 20 µM | > 20 µM | 
21 | CONC1=NC(=O)/C(=C/c2cc(C(C)(C)C)c(O)c(C(C)(C)C)c2)S1 [listing 1 of 2 here] |  |  |  |  |  | inhibition [12]: < 20%
22 | CSC1=NC(=O)/C(=C/c2cc(C(C)(C)C)c(O)c(C(C)(C)C)c2)S1 | 1.8 µM |  | 1.6 µM | 63 µM | 14.4 µM | 
23 | CC(C)(C)c1cc(C=C2SC(=N)NC2=O)cc(C(C)(C)C)c1O [DARBUFELONE] |  |  | 0.069 µM |  | 0.6 µM | inhibition [16]: 41%; inhibition [17]: < 20%
24 | CONC1=NC(=O)/C(=C/c2cc(C(C)(C)C)c(O)c(C(C)(C)C)c2)S1 [listing 2 of 2 here] | 1.7 µM |  | 0.17 µM |  |  | IC50 [13]: > 20 µM
25 | CONC1=NC(=O)/C(=C/c2cc(C(C)(C)C)c(O)c(C(C)(C)C)c2)S1.C[N+](C)(C)CC[O-] |  |  |  |  |  | ED40 [5]: 15.7 mg/kg; ED40 [6]: 0.1 mg/kg; Gastric damage [7]: 0%; Lesion frequency [8]: 0%; Inhibition [9]: 32.8%
26 | CC(C)(C)c1cc(/C=C2\SC(NO)=NC2=O)cc(C(C)(C)C)c1O | 1.5 µM |  | 0.17 µM | 52 µM | 9.2 µM | 
27 | CC(C)c1cc(/C=C2\SC(N=C(N)N)=NC2=O)cc(C(C)C)c1O | 1.8 µM |  | 0.19 µM | 0.22 µM | 2.7 µM | 
